{"source": "patent US20260263340A1", "about": "“Cosmetic Products and Cleaning Products Stabilized Against Microbial Attack” (Thor GmbH, priority 2023, published 2026)", "key": {"bacteria mixture 1": {"tested_on": "bacteria mixture 1", "assay": "Repeated-inoculation microbiological stress test of all-purpose cleaner, bacteria mixture 1", "format": "cell-based", "design": "key to Bacterial growth after inoculation: 0: No growth; Minimal growth, 1 to 10 colonies visible over the entire streak; 2: Light growth, maximum 100 colonies; Moderate growth, maximum 300 to 400 colonies; Uniform growth, >400 colonies, single colonies still clearly recognizable; 5: Heavy growth, too many colonies to count, but no growth over the entire streak; 6: Full growth, barely any single colonies still apparent, growth over the entire streak", "conditions": "for Bacterial growth after inoculation: All-purpose cleaner, 6 d", "source_text": "(§1) The tested cleaning composition was an all-purpose cleaner without preservatives and having a pH of 7.7, the skin lotion was a body lotion without preservatives and having a pH of 7.1, and the shampoo was a hair shampoo without preservatives and having a pH of 6.9.\n(§2) The cleaning composition was admixed with particular concentrations of guanidine carbonate and guanidine hydrochloride and homogenized. The body lotion and the hair shampoo were each admixed and homogenized with guanidine hydrochloride and with octane-1,2-diol alone or in combination.\n(§3) The batches of the products thus obtained were inoculated repeatedly at particular intervals with bacteria mixtures or yeast mixtures that are used as standard for microbiological stress tests of industrial products or cosmetic products (bacteria mixture 1 and 2, yeast mixture 1 and 2).\n(§4) The inoculum was added to the respective sample in each inoculation at 2% (v/w) as a fresh cell suspension in a physiological saline solution (0.9% NaCl). The cell count of the inoculum added was 10^8-10^9/ml for the bacteria mixtures, 10^7-10^8/ml for the yeast mixtures, consisting in equal parts of the individual bacteria strains or yeast strains.\n(§5) The cell suspension of the bacteria mixtures was produced by growing the individual bacteria at 30° C. for 24 h in liquid culture on a shaker. The medium used to grow the bacteria from bacteria mixtures 1 and 2 was Müller-Hinton liquid medium. The bacteria from bacteria mixture 3 were grown in Müller-Hinton liquid medium that had been adjusted to pH 9.5 to 9.7 with an alkaline buffer solution beforehand. After growing, the individual liquid cultures were centrifuged, and the cells were resuspended in physiological saline solution. In order to adjust the mixtures to a total cell count of 10^8 to 10^9/ml, the individual bacteria suspensions, if necessary, were diluted accordingly before being combined with saline solution. The cell count of the inoculum suspensions was determined in each case by chamber counting.\n(§6) In the examples, the samples were inoculated three times at weekly intervals with the respective cell suspensions (2% v/w) and the evolution of the bacteria or yeasts was followed by a semiquantitative evaluation method. After each inoculation, microbial infestation in the samples was evaluated in each case after incubation at 30° C. for 6 to 7 days. For this purpose, an aliquot was taken from each sample after homogenization using a sterile plastic inoculation loop (10 μl) and streaked evenly on agar plates (bacteria mixture 1 and 2 on tryptic soy agar, bacteria mixture 3 on DSMZ 31 alkaline nutrient agar, Sabouraud glucose-agar in the case of yeasts). The streaked agar plates were then incubated at 30° C. for 48 hours (bacteria mixture 1 and 2) or 5 to 7 days (bacteria mixture 3), or at 25° C. for 72 hours (yeast mixtures). After incubation, the bacteria colonies or yeast colonies that have grown on the agar plates were visually evaluated and quantified according to the following scheme:\nInoculation 2% (w/v) with bacteria mixture 1, cell count 10^9/ml"}, "bacteria mixture 3": {"tested_on": "bacteria mixture 3", "assay": "Repeated-inoculation microbiological stress test of all-purpose cleaner, bacteria mixture 3 (alkaliphilic bacteria)", "format": "cell-based, Nesterenkonia spec.", "design": "key to Bacteria growth after inoculation: 0: No growth; Minimal growth, 1 to 10 colonies visible over the entire streak; 2: Light growth, maximum 100 colonies; Moderate growth, maximum 300 to 400 colonies; Uniform growth, >400 colonies, single colonies still clearly recognizable; 5: Heavy growth, too many colonies to count, but no growth over the entire streak; 6: Full growth, barely any single colonies still apparent, growth over the entire streak", "conditions": "for Bacteria growth after inoculation: All-purpose cleaner, 7 d", "source_text": "as §1, §2\nThe cleaning composition was additionally inoculated repeatedly at particular intervals with a special inoculum consisting of a mixture of alkaliphilic bacteria (bacteria mixture 3) that had been isolated from a bacterially contaminated cleaning composition having a pH of 9.8.\nas §4, §5, §6\nInoculation 2% (w/v) with bacteria mixture 3, cell count 10^9/ml"}, "yeast mixture 1": {"tested_on": "yeast mixture 1", "assay": "Repeated-inoculation microbiological stress test of all-purpose cleaner, yeast mixture 1", "format": "cell-based", "design": "key to Yeast growth after inoculation: 0: No growth; Minimal growth, 1 to 10 colonies visible over the entire streak; 2: Light growth, maximum 100 colonies; Moderate growth, maximum 300 to 400 colonies; Uniform growth, >400 colonies, single colonies still clearly recognizable; 5: Heavy growth, too many colonies to count, but no growth over the entire streak; 6: Full growth, barely any single colonies still apparent, growth over the entire streak", "conditions": "for Yeast growth after inoculation: All-purpose cleaner, 6 d", "source_text": "as §1, §2, §3, §4\nThe cell suspension of the yeast mixtures was produced by growing the yeast strains on Sabouraud glucose-agar at 25° C. for 48 hours and washing down the cell lawn in each case with physiological saline solution (0.9% NaCl). Further steps for establishment of a cell count of the inoculum suspension of 10^7/ml to 10^8/ml were effected analogously to the production of the bacteria suspensions.\nas §6\nInoculation 2% (w/v) with yeast mixture 1, cell count 10^8/ml"}, "[1]": {"conditions": "+1000 ppm guanidine carbonate (656 ppm guanidine) pH 9.3, 1. inoculation"}, "[2]": {"conditions": "+1000 ppm guanidine carbonate (656 ppm guanidine) pH 9.3, 2. inoculation"}, "[3]": {"conditions": "+1000 ppm guanidine carbonate (656 ppm guanidine) pH 9.3, 3. inoculation"}}, "data": [{"smiles": "N=C(N)N.N=C(N)N.O=C(O)O", "note": "[guanidine carbonate]", "values": [{"measurement": "Bacterial growth after inoculation", "setting": "bacteria mixture 1; +1000 ppm guanidine carbonate (656 ppm guanidine) pH 9.2, 1. inoculation", "value": 0}, {"measurement": "Bacterial growth after inoculation", "setting": "bacteria mixture 1; +1000 ppm guanidine carbonate (656 ppm guanidine) pH 9.2, 2. inoculation", "value": 0}, {"measurement": "Bacterial growth after inoculation", "setting": "bacteria mixture 1; +1000 ppm guanidine carbonate (656 ppm guanidine) pH 9.2, 3. inoculation", "value": 5}, {"measurement": "Bacterial growth after inoculation", "setting": "bacteria mixture 1; +1500 ppm guanidine carbonate (984 ppm guanidine) pH 9.5, 1. inoculation", "value": 0}, {"measurement": "Bacterial growth after inoculation", "setting": "bacteria mixture 1; +1500 ppm guanidine carbonate (984 ppm guanidine) pH 9.5, 2. inoculation", "value": 0}, {"measurement": "Bacterial growth after inoculation", "setting": "bacteria mixture 1; +1500 ppm guanidine carbonate (984 ppm guanidine) pH 9.5, 3. inoculation", "value": 0}, {"measurement": "stability of the all-purpose cleaner to microbial infestation by bacteria", "setting": "bacteria mixture 1; addition of 659 ppm of guanidine in the form of guanidine carbonate at pH 9.2 or pH 9.5", "value": "distinct improvement in stability"}, {"measurement": "Bacteria growth after inoculation", "setting": "bacteria mixture 3; +500 ppm guanidine carbonate (328 ppm guanidine) pH 9.1, 1. inoculation", "value": 0}, {"measurement": "Bacteria growth after inoculation", "setting": "bacteria mixture 3; +500 ppm guanidine carbonate (328 ppm guanidine) pH 9.1, 2. inoculation", "value": "2 (Light growth, maximum 100 colonies)"}, {"measurement": "Bacteria growth after inoculation", "setting": "bacteria mixture 3; +500 ppm guanidine carbonate (328 ppm guanidine) pH 9.1, 3. inoculation", "value": "2 (Light growth, maximum 100 colonies)"}, {"measurement": "Bacteria growth after inoculation", "setting": "bacteria mixture 3; [1]", "value": 0}, {"measurement": "Bacteria growth after inoculation", "setting": "bacteria mixture 3; [2]", "value": 0}, {"measurement": "Bacteria growth after inoculation", "setting": "bacteria mixture 3; [3]", "value": "1 (Minimal growth, 1 to 10 colonies visible over the entire streak)"}, {"measurement": "Bacteria growth after inoculation", "setting": "bacteria mixture 3; +2500 ppm guanidine carbonate (1640 ppm guanidine) pH 10.0, 1. inoculation", "value": 0}, {"measurement": "Bacteria growth after inoculation", "setting": "bacteria mixture 3; +2500 ppm guanidine carbonate (1640 ppm guanidine) pH 10.0, 2. inoculation", "value": 0}, {"measurement": "Bacteria growth after inoculation", "setting": "bacteria mixture 3; +2500 ppm guanidine carbonate (1640 ppm guanidine) pH 10.0, 3. inoculation", "value": 0}, {"measurement": "Bacteria growth after inoculation", "setting": "bacteria mixture 3; +5000 ppm guanidine carbonate (3280 ppm guanidine) pH 10.5, 1. inoculation", "value": 0}, {"measurement": "Bacteria growth after inoculation", "setting": "bacteria mixture 3; +5000 ppm guanidine carbonate (3280 ppm guanidine) pH 10.5, 2. inoculation", "value": 0}, {"measurement": "Bacteria growth after inoculation", "setting": "bacteria mixture 3; +5000 ppm guanidine carbonate (3280 ppm guanidine) pH 10.5, 3. inoculation", "value": 0}, {"measurement": "stability of the all-purpose cleaner to microbial infestation by bacteria", "setting": "bacteria mixture 3; addition of 330 ppm of guanidine in the form of guanidine carbonate at pH 9.1", "value": "distinct improvement in stability"}, {"measurement": "Yeast growth after inoculation", "setting": "yeast mixture 1; [1]", "value": "1 (Minimal growth, 1 to 10 colonies visible over the entire streak)"}, {"measurement": "Yeast growth after inoculation", "setting": "yeast mixture 1; [2]", "value": "1 (Minimal growth, 1 to 10 colonies visible over the entire streak)"}, {"measurement": "Yeast growth after inoculation", "setting": "yeast mixture 1; [3]", "value": "3 (Moderate growth, maximum 300 to 400 colonies)"}, {"measurement": "Yeast growth after inoculation", "setting": "yeast mixture 1; +2500 ppm guanidine carbonate (1640 ppm guanidine) pH 9.9, 1. inoculation", "value": 0}, {"measurement": "Yeast growth after inoculation", "setting": "yeast mixture 1; +2500 ppm guanidine carbonate (1640 ppm guanidine) pH 9.9, 2. inoculation", "value": 0}, {"measurement": "Yeast growth after inoculation", "setting": "yeast mixture 1; +2500 ppm guanidine carbonate (1640 ppm guanidine) pH 9.9, 3. inoculation", "value": 0}, {"measurement": "Yeast growth after inoculation", "setting": "yeast mixture 1; +5000 ppm guanidine carbonate (3280 ppm guanidine) pH 10.4, 1. inoculation", "value": 0}, {"measurement": "Yeast growth after inoculation", "setting": "yeast mixture 1; +5000 ppm guanidine carbonate (3280 ppm guanidine) pH 10.4, 2. inoculation", "value": 0}, {"measurement": "Yeast growth after inoculation", "setting": "yeast mixture 1; +5000 ppm guanidine carbonate (3280 ppm guanidine) pH 10.4, 3. inoculation", "value": 0}, {"measurement": "stability of the all-purpose cleaner to microbial infestation by yeasts", "setting": "yeast mixture 1; addition of 659 ppm of guanidine in the form of guanidine carbonate at pH 9.9", "value": "distinct improvement in stability"}]}]}
